Data reported in ChEMBL document CHEMBL1121945, “Nitrogen bridgehead compounds. 18. New antiallergic 4H-pyrido[1,2-a]pyrimidin-4-ones. 1” (J Med Chem, 1982).

How the values were obtained:
[1] = organism: Rattus norvegicus; assay: Inhibition of histamine release from sensitized rat mast cells in vitro; assay type: functional
[2] = test system: Rattus norvegicus; assay: Inhibition of rat passive cutaneous anaphylaxis (PCA) reaction was determined after oral administration; assay type: functional; conditions: for ED50: read-out: ID50 (the source's name)
[3] = test system: Rattus norvegicus; assay: Inhibition of rat passive cutaneous anaphylaxis (PCA) reaction after intravenous administration; assay type: functional; conditions: for ED50: Rattus norvegicus, iv, read-out: ID50 (the source's name)
[4] = organism: Rattus norvegicus; assay: The compound was tested for its ability to inhibit histamine release from sensitized rat mast cells in vitro; assay type: functional, cell-based
[5] = Rattus norvegicus, Mast cell, read-out: EC50

Row | SMILES | EC50 [1, 5] [µM] | ED50 ([2]; Rattus norvegicus, po) [µmol/kg] | ED50 [3] [µmol/kg] | also measured
1 | CC1CCC(=NNc2ccccc2)c2ncc(C(=O)O)c(=O)n21 (configuration not stated) | 2.2 | 1.2 | 0.6 | 
2 | CC1CC/C(=N\Nc2ccc(Br)cc2)c2ncc(C(=O)O)c(=O)n21 (configuration not stated) | 2 | > 100 | 0.8 | 
3 | CC1CCn2c(ncc(C(=O)O)c2=O)/C1=N/Nc1ccccc1 (configuration not stated) | 5.4 | > 320 | 32 | 
4 | CC1CC/C(=N\Nc2ccccc2I)c2ncc(C(=O)O)c(=O)n21 (configuration not stated) |  | > 1000 |  | 
5 | CC1CC/C(=N\Nc2ccc(-c3ccccc3)cc2)c2ncc(C(=O)O)c(=O)n21 (configuration not stated) | 4.4 | > 100 | 1.1 | 
6 | COc1ccccc1N/N=C1\CCC(C)n2c1ncc(C(=O)O)c2=O (configuration not stated) |  | > 1000 |  | 
7 | CC1CC/C(=N\Nc2ccccc2)c2ncc(CC(=O)O)c(=O)n21 (configuration not stated) |  |  | 100 | EC50 ([1]; mast cells): 430 uM l-1
8 | CC1CC/C(=N\Nc2ccccc2C(=O)O)c2nccc(=O)n21 (configuration not stated) | 100 | > 100 | > 100 | 
9 | CC1CCC(=NNc2ccccc2C(=O)O)c2ncc(C(=O)O)c(=O)n21 (single isomer, unassigned; (+)) |  |  |  | EC50 ([1]; mast cells): 1100 uM l-1; ID50 [3]: 37.1 µM/kg
10 | CCOC(=O)c1cccc(N/N=C2\CCC(C)n3c2ncc(C(=O)O)c3=O)c1 (configuration not stated) |  | > 100 |  | 
11 | C[C@H]1CCC(=NNc2ccccc2)c2ncc(C(=O)O)c(=O)n21 (single isomer, unassigned; (-)) |  |  |  | EC50 ([1]; mast cells, read-out: EC50): 8 µM; ID50 [2]: >100 µM/kg; ID50 [3]: 54.8 µM/kg
12 | Cc1ccc(N/N=C2\CCC(C)n3c2ncc(C(=O)O)c3=O)cc1 (configuration not stated) | 0.28 | > 1000 | 1.3 | 
13 | CC1CC/C(=N\Nc2ccc(C(F)(F)F)cc2)c2ncc(C(=O)O)c(=O)n21 (configuration not stated) | 0.28 | > 1000 | 38.6 | 
14 | CCOC(=O)c1cnc2n(c1=O)C(C)CC/C2=N\Nc1ccc(C(=O)O)cc1 (configuration not stated) | 66 |  | 100 | 
15 | CC1CC/C(=N\Nc2ccc(O)cc2)c2ncc(C(=O)O)c(=O)n21 (configuration not stated) | 1.3 | > 100 | 1.7 | 
16 | CC(C)c1ccc(N/N=C2\CCC(C)n3c2ncc(C(=O)O)c3=O)cc1 (configuration not stated) | 1.2 | > 100 | 2.4 | 
17 | CCc1ccc(N/N=C2\CCC(C)n3c2ncc(C(=O)O)c3=O)cc1 (configuration not stated) |  | > 1000 |  | 
18 | COc1ccc(N/N=C2\CCC(C)n3c2ncc(C(=O)O)c3=O)cc1 (configuration not stated) |  | 7.6 | 0.8 | EC50 ([1]; mast cells): 128 uM l-1
19 | Cc1cccc(N/N=C2\CCC(C)n3c2ncc(C(=O)O)c3=O)c1 (configuration not stated) | 72.9 | 72.5 | 0.4 | 
20 | CC1CC/C(=N\Nc2ccc(Cl)cc2)c2ncc(C(=O)O)c(=O)n21 (configuration not stated) |  |  | 0.5 | ED50 [2]: > 100 µmol/kg; EC50 ([4]; Mast cell): 16.6 µM
21 | CCOC(=O)c1cnc2n(c1=O)C(C)CC/C2=N\Nc1ccccc1 (configuration not stated) |  | > 1000 |  | 
22 | CC1CC/C(=N\Nc2ccccc2)c2ncc(C(=O)NN)c(=O)n21 (configuration not stated) |  | > 1000 |  | 
23 | CC1CC/C(=N\Nc2cccc(C(=O)O)c2)c2ncc(C(=O)O)c(=O)n21 (configuration not stated) |  | > 100 | 26.6 | EC50 ([4]; Mast cell): 10 µM

Row | SMILES | EC50 [1, 5] [µM] | ED50 ([2]; Rattus norvegicus, po) [µmol/kg] | ED50 [3] [µmol/kg] | also measured
24 | CCOc1ccccc1N/N=C1\CCC(C)n2c1ncc(C(=O)O)c2=O (configuration not stated) |  | > 1000 |  | 
25 | CCOc1cccc(N/N=C2\CCC(C)n3c2ncc(C(=O)O)c3=O)c1 (configuration not stated) | 4.7 | > 100 | 0.2 | 
26 | CC1CC/C(=N\Nc2ccc(C3CC3)cc2)c2ncc(C(=O)O)c(=O)n21 (configuration not stated) | 1 | 100 | 41.1 | 
27 | O=C(O)c1cc(=O)c2c(OCC(O)COc3cccc4oc(C(=O)O)cc(=O)c34)cccc2o1 [CROMOLYN SODIUM] |  |  | 1 | 
28 | CC1CC/C(=N\Nc2ccc(C(=O)O)cc2)c2nccc(=O)n21 (configuration not stated) |  | > 100 | > 100 | EC50 ([1]; mast cells): 450 uM l-1
29 | CC(=O)c1ccccc1N/N=C1\CCC(C)n2c1ncc(C(=O)O)c2=O (configuration not stated) |  | > 1000 |  | 
30 | CC1CC/C(=N\Nc2cccc(C(F)(F)F)c2)c2ncc(C(=O)O)c(=O)n21 (configuration not stated) |  | > 1000 |  | 
31 | CC1CC/C(=N\Nc2ccccc2C(F)(F)F)c2ncc(C(=O)O)c(=O)n21 (configuration not stated) |  | > 1000 |  | 
32 | CC1CC/C(=N\Nc2ccccc2CCO)c2ncc(C(=O)O)c(=O)n21 (configuration not stated) |  | > 100 | 10.8 | EC50 ([1]; mast cells): 330 uM l-1
33 | CC1CC/C(=N\Nc2cccc(I)c2)c2ncc(C(=O)O)c(=O)n21 (configuration not stated) |  | > 1000 |  | 
34 | CC1CC/C(=N\Nc2ccccc2)c2ncc(C(N)=O)c(=O)n21 (configuration not stated) |  | > 1000 |  | 
35 | CC1CC/C(=N\Nc2cccc(Cl)c2)c2ncc(C(=O)O)c(=O)n21 (configuration not stated) |  | > 100 | 0.6 | EC50 ([1]; mast cells): 311 uM l-1
36 | Cc1ccccc1N/N=C1\CCC(C)n2c1ncc(C(=O)O)c2=O (configuration not stated) |  | > 1000 |  | 
37 | CC1C/C(=N\Nc2ccccc2)c2ncc(C(=O)O)c(=O)n2C1 (configuration not stated) | 13 | > 320 | 5.7 | 
38 | CC1CCC(=NNc2ccccc2C(=O)O)c2ncc(C(=O)O)c(=O)n21 (stereo in doubt; 57) |  | > 100 |  | EC50 ([1]; mast cells): 569 uM l-1; ID50 [3]: 0.5 µM/kg
39 | CCOC(=O)c1cnc2n(c1=O)C(C)CC/C2=N\Nc1ccccc1C(=O)O (configuration not stated) | 100 |  | 10 | 
40 | CC1CC/C(=N\Nc2ccc([N+](=O)[O-])cc2)c2ncc(C(=O)O)c(=O)n21 (configuration not stated) | 8.9 | > 320 | 0.8 | 
41 | CC1CC/C(=N\Nc2ccccc2Cl)c2ncc(C(=O)O)c(=O)n21 (configuration not stated) |  | > 1000 |  | 
42 | CC1CC/C(=N\Nc2ccccc2F)c2ncc(C(=O)O)c(=O)n21 (configuration not stated) | 1.2 | > 1000 | 5 | 
43 | CC1CC/C(=N\Nc2ccccc2Br)c2ncc(C(=O)O)c(=O)n21 (configuration not stated) |  | > 320 |  | 
44 | CC1CC/C(=N\Nc2ccc(CC(=O)O)cc2)c2ncc(C(=O)O)c(=O)n21 (configuration not stated) | 3.4 | > 100 | 60.9 | 
45 | CC1CC/C(=N\Nc2ccc(I)cc2)c2ncc(C(=O)O)c(=O)n21 (configuration not stated) |  | > 1000 |  | 
46 | CC1CC/C(=N\Nc2ccccc2[N+](=O)[O-])c2ncc(C(=O)O)c(=O)n21 (configuration not stated) |  | > 1000 |  | 

Row | SMILES | EC50 [1, 5] [µM] | ED50 ([2]; Rattus norvegicus, po) [µmol/kg] | ED50 [3] [µmol/kg] | also measured
47 | C[C@@H]1CC/C(=N\Nc2ccc(O)cc2)c2ncc(C(=O)O)c(=O)n21 | 15.6 | > 100 | 0.14 | 
48 | CC1CC/C(=N\Nc2ccc(F)cc2)c2ncc(C(=O)O)c(=O)n21 (configuration not stated) | 1.2 | > 1000 | 12.2 | 
49 | CC(=O)c1cccc(N/N=C2\CCC(C)n3c2ncc(C(=O)O)c3=O)c1 (configuration not stated) |  | > 1000 |  | 
50 | CC1CCC(=NNc2ccccc2C(=O)O)c2ncc(C(=O)O)c(=O)n21 (stereo in doubt; 56) |  |  |  | EC50 [4]: 1300 uM l-1; ID50 [3]: 0.48 µM/kg
51 | C[C@H]1CC/C(=N\Nc2ccc(O)cc2)c2ncc(C(=O)O)c(=O)n21 | 26.2 | > 100 | 110 | 
52 | CCCCc1ccc(N/N=C2\CCC(C)n3c2ncc(C(=O)O)c3=O)cc1 (configuration not stated) | 0.7 | 100 | 7.8 | 
53 | CCOc1ccc(N/N=C2\CC[C@H](C)n3c2ncc(C(=O)O)c3=O)cc1 | 19.2 | > 100 | 100 | 
54 | CC1CC/C(=N\Nc2cccc(C(=O)O)c2)c2nccc(=O)n21 (configuration not stated) |  | > 100 | > 100 | EC50 ([1]; mast cells): 655 uM l-1
55 | CNC(=O)c1ccc(N/N=C2\CCC(C)n3c2ncc(C(=O)O)c3=O)cc1 (configuration not stated) | 100 | > 100 | 9.6 | 
56 | CCOc1ccc(N/N=C2\CC[C@@H](C)n3c2ncc(C(=O)O)c3=O)cc1 | 1 | > 100 | 0.2 | 
57 | CC1CC/C(=N\Nc2ccccc2)c2ncc(C#N)c(=O)n21 (configuration not stated) |  | > 1000 |  | 
58 | CCOc1ccc(N/N=C2\CCC(C)n3c2ncc(C(=O)O)c3=O)cc1 (configuration not stated) | 17.6 | > 100 | 1.6 | 
59 | CC1CC/C(=N\Nc2cccc(Br)c2)c2ncc(C(=O)O)c(=O)n21 (configuration not stated) | 6.7 | > 320 | 0.4 | 
60 | CCOC(=O)c1cnc2n(c1=O)C(C)CC/C2=N\Nc1cccc(C(=O)O)c1 (configuration not stated) |  |  | 100 | EC50 ([1]; mast cells): 740 uM l-1
61 | C[C@H]1CCC(=NNc2ccccc2)c2ncc(C(=O)O)c(=O)n21 (single isomer, unassigned; (+)) |  |  |  | EC50 ([1]; mast cells, read-out: EC50): 0.6 µM; ID50 [2]: 1 µM/kg; ID50 [3]: 0.3 µM/kg
62 | CC(=O)c1ccc(N/N=C2\CCC(C)n3c2ncc(C(=O)O)c3=O)cc1 (configuration not stated) | 8.1 | > 100 | 9.5 | 
63 | CC1CC/C(=N\Nc2ccc(C(=O)O)cc2)c2ncc(C(=O)O)c(=O)n21 (configuration not stated) |  |  | 7.6 | EC50 ([1]; mast cells): 1000 uM l-1
64 | CC1CC/C(=N\Nc2ccccc2O)c2ncc(C(=O)O)c(=O)n21 (configuration not stated) |  | > 100 | 0.26 | EC50 ([1]; mast cells): 208 uM l-1
65 | CC1CCCc2ncc(C(=O)O)c(=O)n21 (configuration not stated) |  |  | 240 | 
66 | CC1CC/C(=N\Nc2ccccc2)c2nccc(=O)n21 (configuration not stated) |  | > 100 |  | 
67 | O=C(O)c1cnc2n(c1=O)CCC/C2=N\Nc1ccccc1 | 2.9 | > 100 | 31.6 | 
68 | CC1CC/C(=N\Nc2cccc([N+](=O)[O-])c2)c2ncc(C(=O)O)c(=O)n21 (configuration not stated) |  |  | 0.5 | ED50 [2]: > 100 µmol/kg
